Laboratory results from patent US20260151350A1, “COMPOSITIONS AND METHODS FOR TARGETED DELIVERY TO CELLS” (The Board of Regents of The University of Texas System, priority 2021, published 2026).

Test system: C57BL/6 mice
Assay: Cy5-mRNA biodistribution, ex vivo organ fluorescence after IV injection
Type: in vivo, mouse
Settings: 0.5 mg/kg mRNA IV, 6 h
Description: FIG. 1B illustrates ex vivo fluorescence of Cy5-labelled mRNA in major organs extracted from C57BL/6 mice intravenously injected with example SORT LNPs (as described herein) that incorporate increasing percentages of different SORT molecules (0.5 mg/kg mRNA/body weight, 6 h).
FIG. 1C illustrates relative average Cy5 fluorescence measured in the liver, lung, and spleen as a function of SORT molecule percent inclusion (0.5 mg/kg mRNA/body weight, n=2). SORT molecules promote mRNA biodistribution to target organs. Data are shown as mean±s.e.m.
We first investigated the biodistribution of mRNA encapsulated in example SORT LNPs to determine whether there was a correlation between the organs in which the SORT LNPs accumulated and their tissue-specific mRNA activity. We formulated example liver, lung, and spleen SORT LNPs encapsulating Cy5-labelled mRNA following the identical protocols and formulation parameters used in our previous publications. We administered each LNP IV to C57BL/6 mice and tracked the in vivo biodistribution of the Cy5-mRNA using fluorescence imaging. Six hours post-injection, organs were excised and imaged ex vivo (FIG. 1B). The average fluorescence produced by the liver, spleen, and lungs was quantified (FIG. 1C). […] Importantly, these tracking studies quantify where the example SORT LNPs biodistribute but not where mRNA is translated to protein (functional delivery).

SORT molecule inclusion giving optimal liver biodistribution: 20%
SMILES: CCCCCCCC/C=C\CCCCCCCC(=O)OCC(CN(C)C)OC(=O)CCCCCCC/C=C\CCCCCCCC (stereo not shown) [DODAP, 1,2-Dioleoyl-3-dimethylammonium-propane]
